Test [1] has as its system thrombus on silk thread in extracorporeal shunt of rats. Nature of the test: Antithrombotic effect (II): extracorporeal shunt with silk thread, thrombus wet weight. It is filed as in vivo, Wister strain male rats. The note with it: 20 minute circulation; for Thrombosis wet weight: mean ± S.E., control 38.1 ± 3.4. Here is the method: The present pharmacological test was conducted according to the method by T. Umetsu et al. [Thrombosis and Haemostasis, 39, 74-83 (1978)]. Groups each consisting of 10 Wister strain male rats were anesthetized by intraperitoneal administration of 50 mg/kg of sodium pentobarbital. An extracorporeal shunt prepared by connecting cannula polyethylene tubes to both ends of a polyethylene tube into which a silk thread had been inserted was filled with heparin, the both ends were then inserted into the dissected and exposed left jugular vein and right carotid artery. Thereafter, blood circulation was started. The drug to be tested was intravenously administered one minute before the start of blood circulation. Aspirin was orally administered as a comparative drug. After 20 minute blood circulation, the wet weight of the thrombus coated to the silk thread was weighed, and the inhibition rate was calculated.

Test [2] deals with restraint and water immersion stress ulcer in rats. Nature of the test: (A) Restraint and water immersion stress ulcer inhibiting effect. In kind it is in vivo. The note with it: stress 25° C., 4 hours, drug once before stress. On the procedure:
(§1) The peptide compound of this invention (Compound 25) and cimetidine and atropine both employed as the comparative drugs were intravenously administered.
According to the method by Takagi et al. [Takagi, K. et al., Chem. Pharm. Bull., 12, 465 (1964)], the effect on the ulcer in rats induced by stress due to restraint and immersing in water in wire cages (25° C., 4 hours) was examined. The drugs to be tested were administered once before loading the stress.

Test [3] has as its system aspirin-induced ulcer in rats. Nature of the test: (B) Aspirin-induced ulcer inhibiting effect. Particulars: drug once before oral aspirin 200 mg/kg. It is filed as in vivo. On the procedure:
4. […] According to the method by Brodie et al. [Brodie, D. A. & Chase, B. J., Gastroenterology, 53, 604 (1967)], the drug to be tested was orally administered to rats once before the oral administration of 200 mg/kg of aspirin.

Test [4] relates to histamine-induced ulcer in rats. Nature of the test: (C) Histamine-induced ulcer inhibiting effect (ID50). It is filed as in vivo. Particulars: drug once before histamine 300 mg/kg. Here is the method: 4. […] According to the method by Bucher et al. [ Bucher, F. et al., Beitr. Path. Anat., 81, 391 (1928)], the drug to be tested was intraperitoneally administered to rats once before the oral administration of 300 mg/kg of histamine.

Test [5] concerns cortisone-induced ulcer in rats. Nature of the test: (D) Cortisone-induced ulcer inhibiting effect. In kind it is in vivo. Particulars: starved rats, cortisone acetate 20 mg/kg s.c. and drug once a day for 4 days. Here is the method: as §1
According to the method by Robert et al. [Robert, A & Nezamis, J. E., Proc. Soc. Exptl. Biol. Med., 99, 443 (1958)], rats were starved, and 20 mg/kg of cortisone acetate was subcutaneously administered once a day for 4 days to induce ulcer. The drug to be tested was also administered simultaneously with the cortisone acetate once a day for 4 days.

Test [6] concerns cysteamine-induced duodenal ulcer in rats. Nature of the test: (E) Cysteamine-induced duodenal ulcer inhibiting effect. In kind it is in vivo. The note with it: drug once before cysteamine hydrochloride 400 mg/kg. Here is the method:
as §1
According to the method by Robert at al. [Robert, H. et al., Digestion, 11, 199 (1974)], 400 mg/kg of cysteamine hydrochloride was administered to rats to induce duodenal ulcer. The drug to be tested was administered once before the administration of the cysteamine.

For test [7], the system named is histamine-induced ulcer in rats. Nature of the test: Histamine-induced ulcer inhibiting effect (Table 1). In kind it is in vivo, Wister strain male rats. The note with it: histamine dihydrochloride 300 mg/kg i.p., 4 hours; for Ulcer coefficient (total surface area of ulcer lesion): mean ± S.E., control 28.4 ± 3.2. Here is the method:
Groups each consisting of 10 Wister strain male rats (120-130 g) were starved for 24 hours, and the drug to be tested were intravenously administered (i.v.). Immediately thereafter, according to the method by Bucher et al. [Bucher, F. et al., Beitr. Path. Anat. 81, 391 (1928)], 300 mg/kg of histamine dihydrochloride was administered intraperitoneally (i.p.). Four hours later, each animal was decapitated to bleed, and the stomach was removed. 6 ml of physiological saline was infused into the removed stomach, which was then dipped in 10% formalin for 10 minutes. Then, the stomach was incised along the greater curvature. The ulcer appeared on the stomach mucous membrane was observed on a stereoscopic microscope to measure the surface area of the ulcer lesion, and the total area was designated as the ulcer coefficient.

The test system of test [8] is pylorus ligation ulcer in rats. Nature of the test: Pylorus ligation ulcer inhibiting effect. It is filed as in vivo, Wister strain male rats. Particulars: 1 mg/kg i.p., 18 hours after pylorus ligation, mean ± S.E., control 4.5 ± 0.3. Here is the method: Groups each consisting of 10 Wister strain male rats were starved for 24 hours, and the pylorus was ligatured under etherized conditions. The peptide compound of this invention (Compound 25) was intraperitoneally administered. Eighteen hours later, the stomach was removed and cut open. The ulcer appeared on the rumen was evaluated using 6-ranked ulcer index according to the method by Narumi et al. [A. Narumi, et al., J. Takeda Res. Lab., 29, 85 (1970)].

The test system of test [9] is acetic acid-induced ulcer in rats. Nature of the test: Acetic acid-induced (chronic) ulcer inhibiting effect. It is filed as in vivo. The note with it: once a day for 10 days. On the procedure: The effect of the peptide compound of this invention on chronic ulcer was examined according to the method by Takagi et al. [Takagi, K. et al., Japan J. Pharmacol., 19, 418 (1970)]. That is, 0.025 ml of 30% acetic acid was injected to the stomach serous membrane in rats, and for 10 days thereafter, the peptide compound of this invention (Compound 25) was intravenously administered once a day. Gefarnate and secretin both employed as the comparative drugs were similarly intramuscularly administered (i.m.).

Test [10] relates to Collagen Induced Hemagglutination. Nature of the test: Antithrombotic effect (I): collagen induced hemagglutination in plasma of dosed rats. Particulars: collagen as coagulant; for Transmittance: mean ± S.E., control 52.5 ± 7.1. In kind it is in vivo, Wister strain male rats. On the procedure: (§2) Groups each consisting of 10 Wister strain male rats (120-160 g) were administered with the drug to be tested through the tail vein, and 5 minutes later, blood was taken under etherized conditions at a ratio to 3.8% aqueous sodium citrate solution of 1/10. This was centrifugally separated into platelet rich plasma (PRP) and platelet poor plasma (PPP). Using ADP or collagen as the coagulant, the reaction was effected at 37° C. The transmittance of the plasma with the coagulant and drug to be tested was measured using PRP and PPP as the standards, compared with the control, and the percent inhibition was calculated. As the comparative drug, ticlopidine was orally administered.

In test [11] the test system is ADP Induced Hemagglutination. Nature of the test: Antithrombotic effect (I): ADP induced hemagglutination in plasma of dosed rats. In kind it is in vivo, Wister strain male rats. The note with it: ADP as coagulant; for Transmittance: mean ± S.E., control 62.9 ± 6.3. On the procedure:
as §2

Setting [12] is: 1 mg/kg i.v. one minute before circulation.
The mark [13] stands for this setting: 10 mg/kg i.v. one minute before circulation.
The mark [14] stands for this setting: 10 mg/kg via tail vein, blood taken 5 minutes later.

Square brackets hold non-standard residues; d marks the D form. Peptide text beside a SMILES is read from it. pGlu = O=C1CC[C@@H](C(=O)O)N1

What is called inhibition is the relative decrease from the control value, in per cent. Consider `CC(=O)Oc1ccccc1C(=O)O` [Aspirin], for which the “Thrombosis wet weight” value in test [1] (100 mg/kg orally) is 22.3 ± 3.2 mg. The inhibition at 100 mg/kg in test [1] (Rattus norvegicus, po, 20 min, 100 mg/kg orally, read-out: Inhibition rate (%)) was 41.5%.
On to `CN1[C@@H]2CC[C@H]1C[C@@H](OC(=O)C(CO)c1ccccc1)C2` (stereo partly drawn) [Atropine, atropine], for which the “ID50 (A) restraint and water immersion stress ulcer” value in test [2] is 0.4 mg/kg, i.v. The “ID50 (B) aspirin-induced ulcer” value in test [3] is recorded as 0.52 mg/kg, i.v. In [4], the “ID50 (C) histamine-induced ulcer” value is 0.35 mg/kg, i.v. For the same molecule, the “ID50 (D) cortisone-induced ulcer” value in test [5] is 0.25 mg/kg, i.v. For the same molecule, in [6], the “ID50 (E) cysteamine-induced duodenal ulcer” value is 0.35 mg/kg, i.v.
On to `CN/C(=N/CCSCc1nc[nH]c1C)NC#N` [Cimetidine, cimetidine], for which the “Ulcer coefficient (total surface area of ulcer lesion)” value (shortened to “Ulcer coefficient”) in test [7] (25 mg/kg i.v.) came to 10.9 ± 1.9. Moreover, the inhibition at 25 mg/kg in test [7] (Rattus norvegicus, 25 mg/kg i.v., read-out: Inhibition rate (%)) came to 61.6%. Besides, the “ID50 (A) restraint and water immersion stress ulcer” value in test [2] was 37.0 mg/kg, i.v. For the same molecule, the “ID50 (B) aspirin-induced ulcer” value in test [3] was 39.0 mg/kg, i.v. Moreover, the “ID50 (C) histamine-induced ulcer” value in [4] is recorded as 17.0 mg/kg, i.v. Besides, in [5], the “ID50 (D) cortisone-induced ulcer” value was 28.0 mg/kg, i.v. The “ID50 (E) cysteamine-induced duodenal ulcer” value in test [6] is listed as 26.0 mg/kg, i.v.
Regarding `NCCCC[C@H](NC(=O)[C@H](Cc1c[nH]cn1)NC(=O)[C@H](CO)NC(=O)CN)C(=O)O` [Compound 25, Gly-Ser-His-Lys.CH3 COOH.H2 O] (H-GSHK-OH), the “Inhibition rate (%)” value in test [7] (20 mg/kg i.v.) is 79.9%; in test [10] (10 mg/kg), 71.8%; in [1] (setting [12]), 27.3%; in [1] (setting [13]), 44.1%. In addition, the “Ulcer coefficient” value in [7] (20 mg/kg i.v.) worked out at 5.7 ± 2.6. For the same molecule, the “Ulcer index (6-ranked)” value in [8] is recorded as 3.1 ± 0.5. The “ID50 (A) restraint and water immersion stress ulcer” value in [2] is on record as 4.2 mg/kg, i.v. The “ID50 (B) aspirin-induced ulcer” value in test [3] is 5.0 mg/kg, i.v. Moreover, the “ID50 (C) histamine-induced ulcer” value in test [4] is on record as 6.0 mg/kg, i.v. In addition, the “ID50 (D) cortisone-induced ulcer” value in test [5] is listed as 1.85 mg/kg, i.v. Moreover, in test [6], the “ID50 (E) cysteamine-induced duodenal ulcer” value is listed as 5.0 mg/kg, i.v. The “ID50 acetic acid-induced ulcer” value in test [9] (intravenous) is on record as 1.0 mg/kg, i.v. The molecule also showed a Transmittance in test [10] (10.0 mg/kg via tail vein, 10 mg/kg) of 14.8 ± 4.9. The “Thrombosis wet weight” value in test [1] (setting [12]) is on record as 27.7 ± 4.0 mg; in test [1] (setting [13]) it was 21.3 ± 3.3 mg.
For the molecule `NCCCC[C@H](NC(=O)[C@H](Cc1c[nH]cn1)NC(=O)[C@H](CO)NC(=O)[C@@H]1CCC(=O)N1)C(=O)O` [Compound 28, (pyr)Glu-Ser-His-Lys] ([pGlu]SHK-OH), in test [7] (20 mg/kg i.v.), the “Inhibition rate (%)” value is listed as 57.0% and the “Ulcer coefficient” value is reported as 12.2 ± 2.6. Also, in test [11] (setting [14]), the “Inhibition rate (%)” value is recorded as 57.9% and the Transmittance is 26.5 ± 7.2.
In the case of `CC(C)=CCC/C(C)=C/CC/C(C)=C/CCC(=O)OC/C=C(\C)CCC=C(C)C` [Gefarnate], in test [9] (intramuscular), the “ID50 acetic acid-induced ulcer” value was 250 mg/kg, i.m.
For the molecule `Clc1ccccc1CN1CCc2sccc2C1` [Thichlopidine, ticlopidine], the Transmittance in [11] (100 mg/kg orally) amounted to 41.6 ± 10.4; in test [10] (100 mg/kg orally), 34.6 ± 10.8. In addition, the inhibition at 100 mg/kg in [11] (Rattus norvegicus, po, 100 mg/kg orally, read-out: Inhibition Rate (%)) is 33.9%; in test [10] (Rattus norvegicus, po, 100 mg/kg orally, read-out: Inhibition rate (%)) it was 34.1%.
Take secretin: in test [9] (intramuscular), the “ID50 acetic acid-induced ulcer” value is given as > 100 U/kg, i.m.

The values are drawn from patent US4461724A, “Peptide compounds, a process for manufacturing them, pharmaceutical compositions containing them, and methods for treating ulcer and thrombus with them” (Nippon Zoki Pharmaceutical Co., Ltd., priority 1981, dated 1984).
